Data: patent US20240148962A1, “INTRAVENOUS DELIVERY OF LARGE VOLUMES OF GAS WITH HIGHLY PRESSURIZED SUPERSATURATED SOLUTION” (Regents of the University of Minnesota, priority 2021, published 2024)

Key:
[1] = Oxygen content dissolved in saline under different pressure and temperature, with and without nanobubbles; type: physicochemical; settings: FIG. 4A; 5° C. and 5 atm
Text: Nanobubbles (triangles) are compared to control and macrobubbles (dots).

[2] = 1 atm, room temperature; cited from earlier work

O=O [oxygen]
oxygen content in saline without nanobubbles [1]: 200 ml of oxygen per L of saline | content of oxygen, previously published evidence [2]: 43 ml/liter
